Test results taken from PubChem BioAssay (NCI).
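Cultured in 96-well plates, cells were exposed to test compound for 48 hours across five concentrations. Definition used: TGI = concentration required for complete inhibition of growth.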

What follows are compounds tested on SN12K1 renal (assay: NCI anticancer screen, dose series, 48 h).

| Compound | TGI [µM] |
| --- | --- |
| CSCC(CO)NC(=O)/C=C/c1c(C)[nH]c(=O)[nH]c1=O (stereo unspecified) | > 875 |
| CN(C)c1cccc(OC(=O)NCCCl)c1 | > 100 |
| c1ccc2c(c1)SP1Sc3ccccc3P21 (stereo unspecified) | > 100 |
| c1ccc2c(c1)SCCc1cn[nH]c1-2 | > 100 |

Each compound was assayed on RXF-631 renal (assay: NCI anticancer screen, dose series, 48 h).

| Compound | TGI [µM] |
| --- | --- |
| O=S(O)CCCSSSCCCS(=O)O | > 100 |
| CN(c1ccccc1)c1nc(=[N+]2CCCC2)ss1 | > 100 |
